From ChEMBL document CHEMBL4715697, “Synthesis and biological activity of benzamide DNA minor groove binders” (2016)

What was measured:
Assay type in all cases: functional
Hs-578T = test: Growth inhibition of human Hs-578T cells assessed as cell growth at 0.01 uM incubated for 48 hrs by sulforhodamine B assay relative to control; conditions: read-out: Activity
OVCAR-8 = test: Growth inhibition of human OVCAR-8 cells assessed as cell growth at 0.01 uM incubated for 48 hrs by sulforhodamine B assay relative to control; conditions: read-out: Activity
TK-10 [1] = test: Growth inhibition of human TK-10 cells assessed as cell growth at 100 uM incubated for 48 hrs by sulforhodamine B assay relative to control; conditions: read-out: Activity
PC-3 = test: Growth inhibition of human PC-3 cells assessed as cell growth at 0.01 uM incubated for 48 hrs by sulforhodamine B assay relative to control; conditions: read-out: Activity
CAKI-1 [2] = test: Growth inhibition of human CAKI-1 cells assessed as cell growth at 0.01 uM incubated for 48 hrs by sulforhodamine B assay relative to control; conditions: read-out: Activity
HCC 2998 = test: Growth inhibition of human HCC 2998 cells assessed as cell growth at 100 uM incubated for 48 hrs by sulforhodamine B assay relative to control; conditions: read-out: Activity
MDA-MB-435 = test: Growth inhibition of human MDA-MB-435 cells incubated for 48 hrs by sulforhodamine B assay
Malme-3M = test: Growth inhibition of human Malme-3M cells incubated for 48 hrs by sulforhodamine B assay
SK-MEL-5 [3] = test: Growth inhibition of human SK-MEL-5 cells assessed as cell growth at 100 uM incubated for 48 hrs by sulforhodamine B assay relative to control; conditions: read-out: Activity
DU-145 [4] = test: Growth inhibition of human DU-145 cells assessed as cell growth at 100 uM incubated for 48 hrs by sulforhodamine B assay relative to control; conditions: read-out: Activity
DU-145 [5] = test: Growth inhibition of human DU-145 cells assessed as cell growth at 0.1 uM incubated for 48 hrs by sulforhodamine B assay relative to control; conditions: read-out: Activity
UO-31 = test: Growth inhibition of human UO-31 cells assessed as cell growth at 0.1 uM incubated for 48 hrs by sulforhodamine B assay relative to control; conditions: read-out: Activity
A549 = test: Growth inhibition of human A549/ATCC cells assessed as cell growth at 100 uM incubated for 48 hrs by sulforhodamine B assay relative to control; conditions: read-out: Activity
NCI-H226 = test: Growth inhibition of human NCI-H226 cells assessed as cell growth at 0.1 uM incubated for 48 hrs by sulforhodamine B assay relative to control; conditions: read-out: Activity
NCI-H522 = test: Growth inhibition of human NCI-H522 cells assessed as cell growth at 0.01 uM incubated for 48 hrs by sulforhodamine B assay relative to control; conditions: read-out: Activity
NCI-H23 = test: Growth inhibition of human NCI-H23 cells incubated for 48 hrs by sulforhodamine B assay
M14 = test: Growth inhibition of human M14 cells assessed as cell growth at 100 uM incubated for 48 hrs by sulforhodamine B assay relative to control; conditions: read-out: Activity
ACHN = test: Growth inhibition of human ACHN cells assessed as cell growth at 1 uM incubated for 48 hrs by sulforhodamine B assay relative to control; conditions: read-out: Activity
UACC-257 = test: Growth inhibition of human UACC-257 cells assessed as cell growth at 100 uM incubated for 48 hrs by sulforhodamine B assay relative to control; conditions: read-out: Activity
OVCAR-3 = test: Growth inhibition of human OVCAR-3 cells incubated for 48 hrs by sulforhodamine B assay
HT-29 [6] = test: Growth inhibition of human HT-29 cells assessed as cell growth at 1 uM incubated for 48 hrs by sulforhodamine B assay relative to control; conditions: read-out: Activity
TK-10 [7] = test: Growth inhibition of human TK-10 cells assessed as cell growth at 1 uM incubated for 48 hrs by sulforhodamine B assay relative to control; conditions: read-out: Activity
CAKI-1 [8] = test: Growth inhibition of human CAKI-1 cells assessed as cell growth at 1 uM incubated for 48 hrs by sulforhodamine B assay relative to control; conditions: read-out: Activity
KM12 = test: Growth inhibition of human KM12 cells assessed as cell growth at 1 uM incubated for 48 hrs by sulforhodamine B assay relative to control; conditions: read-out: Activity
SK-MEL-5 [9] = test: Growth inhibition of human SK-MEL-5 cells assessed as cell growth at 0.1 uM incubated for 48 hrs by sulforhodamine B assay relative to control; conditions: read-out: Activity
SF-268 = test: Growth inhibition of human SF-268 cells incubated for 48 hrs by sulforhodamine B assay
SF-539 = test: Growth inhibition of human SF-539 cells assessed as cell growth at 0.1 uM incubated for 48 hrs by sulforhodamine B assay relative to control; conditions: read-out: Activity
OVCAR-4 = test: Growth inhibition of human OVCAR-4 cells assessed as cell growth at 0.1 uM incubated for 48 hrs by sulforhodamine B assay relative to control; conditions: read-out: Activity
UACC-62 = test: Growth inhibition of human UACC-62 cells incubated for 48 hrs by sulforhodamine B assay
TK-10 [10] = test: Growth inhibition of human TK-10 cells incubated for 48 hrs by sulforhodamine B assay
HT-29 [11] = test: Growth inhibition of human HT-29 cells assessed as cell growth at 0.01 uM incubated for 48 hrs by sulforhodamine B assay relative to control; conditions: read-out: Activity
HCT-15 = test: Growth inhibition of human HCT-15 cells assessed as cell growth at 100 uM incubated for 48 hrs by sulforhodamine B assay relative to control; conditions: read-out: Activity
786-0 = test: Growth inhibition of human 786-0 cells assessed as cell growth at 100 uM incubated for 48 hrs by sulforhodamine B assay relative to control; conditions: read-out: Activity
IGROV-1 = test: Growth inhibition of human IGROV-1 cells assessed as cell growth at 1 uM incubated for 48 hrs by sulforhodamine B assay relative to control; conditions: read-out: Activity
[12] = read-out: LC50 (the source's name)
[13] = read-out: pLC50 (the source's name) (converted)

CC(=O)Nc1cc(CO[Si](C)(C)C(C)(C)C)cc(NC(=O)c2ccc(C(=O)Nc3cccc(NC(=O)CCCN(C)C)c3)cc2)c1
growth at 0.01 µM (Hs-578T): 99% | growth at 0.01 µM (OVCAR-8): 102% | growth at 100 µM (TK-10 [1]): 98% | growth at 0.01 µM (PC-3): 100% | growth at 0.01 µM (CAKI-1 [2]): 92% | growth at 100 µM (HCC 2998): 93% | GI50 (MDA-MB-435; read-out: GI50): > 75 µM | LC50 (50% lethal concentration) (MDA-MB-435; read-out: LC50): > 75 µM | TGI (MDA-MB-435; read-out: TGI): > 75 µM | GI50 (MDA-MB-435; read-out: pGI50 (converted)): > 75.9 µM | LC50 (50% lethal concentration) (MDA-MB-435; read-out: pLC50 (converted)): > 75.9 µM | TGI (MDA-MB-435; read-out: pTGI): > 75.9 µM | GI50 (Malme-3M; read-out: GI50): 36.3 µM | LC50 (concentration killing 50% of cells) (Malme-3M; read-out: LC50): > 75 µM | TGI (Malme-3M; read-out: TGI): > 75 µM | GI50 (Malme-3M; read-out: pGI50 (converted)): 36.3 µM | LC50 (concentration killing 50% of cells) (Malme-3M; read-out: pLC50 (converted)): > 75.9 µM | TGI (Malme-3M; read-out: pTGI): > 75.9 µM | growth at 100 µM (SK-MEL-5 [3]): 73% | growth at 100 µM (DU-145 [4]): 85% | growth at 0.1 µM (DU-145 [5]): 100% | growth at 0.1 µM (UO-31): 94% | growth at 100 µM (A549): 98% | growth at 0.1 µM (NCI-H226): 93% | growth at 0.01 µM (NCI-H522): 89% | GI50 (NCI-H23; read-out: GI50): > 75 µM | CC50 (NCI-H23; [12]): > 75 µM | TGI (NCI-H23; read-out: TGI): > 75 µM | GI50 (NCI-H23; read-out: pGI50 (converted)): > 75.9 µM | CC50 (NCI-H23; [13]): > 75.9 µM | TGI (NCI-H23; read-out: pTGI): > 75.9 µM | growth at 100 µM (M14): 75% | growth at 1 µM (ACHN): 98% | growth at 100 µM (UACC-257): 81% | GI50 (OVCAR-3; read-out: GI50): > 75 µM | LC50 (50% lethal concentration) (OVCAR-3; read-out: LC50): > 75 µM | TGI (OVCAR-3; read-out: TGI): > 75 µM | GI50 (OVCAR-3; read-out: pGI50 (converted)): > 75.9 µM | LC50 (50% lethal concentration) (OVCAR-3; read-out: pLC50 (converted)): > 75.9 µM | TGI (OVCAR-3; read-out: pTGI): > 75.9 µM | growth at 1 µM (HT-29 [6]): 113% | growth at 1 µM (TK-10 [7]): 111% | growth at 1 µM (CAKI-1 [8]): 73% | growth at 1 µM (KM12): 99% | growth at 0.1 µM (SK-MEL-5 [9]): 97% | GI50 (SF-268; read-out: GI50): > 75 µM | LC50 (SF-268; read-out: LC50): > 75 µM | TGI (SF-268; read-out: TGI): > 75 µM | GI50 (SF-268; read-out: pGI50 (converted)): > 75.9 µM | LC50 (SF-268; read-out: pLC50 (converted)): > 75.9 µM | TGI (SF-268; read-out: pTGI): > 75.9 µM | growth at 0.1 µM (SF-539): 98% | growth at 0.1 µM (OVCAR-4): 96% | GI50 (UACC-62; read-out: GI50): > 75 µM | CC50 (UACC-62; [12]): > 75 µM | TGI (UACC-62; read-out: TGI): > 75 µM | GI50 (UACC-62; read-out: pGI50 (converted)): > 75.9 µM | CC50 (UACC-62; [13]): > 75.9 µM | TGI (UACC-62; read-out: pTGI): > 75.9 µM | GI50 (TK-10 [10]; read-out: GI50): > 75 µM | CC50 (TK-10 [10]; [12]): > 75 µM | TGI (TK-10 [10]; read-out: TGI): > 75 µM | GI50 (TK-10 [10]; read-out: pGI50 (converted)): > 75.9 µM | CC50 (TK-10 [10]; [13]): > 75.9 µM | TGI (TK-10 [10]; read-out: pTGI): > 75.9 µM | growth at 0.01 µM (HT-29 [11]): 102% | growth at 100 µM (HCT-15): 82% | growth at 100 µM (786-0): 88% | growth at 1 µM (IGROV-1): 81%
